Several values for one entry are separate records, joined by “and”; a condition that tells them apart may be missing. Equal entries are not always repeated. Results filed as inconclusive are left out.
Test system: C3AKF1 mice, hamster liver cystadenocarcinoma s.c., tumor weight T/C
Test: NCI In Vivo Anticancer Drug Screen. Data for tumor model Cystadenocarcinoma, Liver (No. 1) (Hamster) (subcutaneous) in C3AKF1 (CHKRF1) mice
Details: endpoint: mean tumor weight, higher = larger tumour
Experimental: The antitumor activity of compounds was measured in mice bearing transplantable tumors. Survival or tumor size were measured and the results are expressed as the measurement made in the treated group (T) divided by the measurement made in the vehicle treated control group (C). The tumor model used in this assay is Cystadenocarcinoma, Liver (No. 1) (Hamster) (subcutaneous) in C3AKF1 (CHKRF1) mice

[1] = dose: 50.0 mg/kg/injection, schedule: Q01DX010 (ip), vehicle: saline
[2] = dose: 100.0 mg/kg/injection, schedule: Q01DX010 (ip), vehicle: saline
[3] = dose: 200.0 mg/kg/injection, schedule: Q01DX010 (ip), vehicle: saline
[4] = dose: 12.0 mg/kg/injection, schedule: Q01DX010 (ip), vehicle: carboxymethylcellulose (CMC)
[5] = dose: 25.0 mg/kg/injection, schedule: Q01DX010 (ip), vehicle: carboxymethylcellulose (CMC)
[6] = dose: 50.0 mg/kg/injection, schedule: Q01DX010 (ip), vehicle: carboxymethylcellulose (CMC)
[7] = dose: 100.0 mg/kg/injection, schedule: Q01DX010 (ip), vehicle: carboxymethylcellulose (CMC)
[8] = dose: 62.5 mg/kg/injection, schedule: Q01DX010 (ip), vehicle: carboxymethylcellulose (CMC)
[9] = dose: 125.0 mg/kg/injection, schedule: Q01DX010 (ip), vehicle: carboxymethylcellulose (CMC)
[10] = dose: 250.0 mg/kg/injection, schedule: Q01DX010 (ip), vehicle: carboxymethylcellulose (CMC)
[11] = dose: 500.0 mg/kg/injection, schedule: Q01DX010 (ip), vehicle: carboxymethylcellulose (CMC)
[12] = dose: 0.5 mg/kg/injection, schedule: Q01DX010 (ip), vehicle: carboxymethylcellulose (CMC)
[13] = dose: 1.0 mg/kg/injection, schedule: Q01DX010 (ip), vehicle: carboxymethylcellulose (CMC)
[14] = dose: 3.0 mg/kg/injection, schedule: Q01DX010 (ip), vehicle: carboxymethylcellulose (CMC)
[15] = dose: 75.0 mg/kg/injection, schedule: Q01DX010 (ip), vehicle: carboxymethylcellulose (CMC)
[16] = dose: 150.0 mg/kg/injection, schedule: Q01DX010 (ip), vehicle: carboxymethylcellulose (CMC)
[17] = dose: 200.0 mg/kg/injection, schedule: Q01DX010 (ip), vehicle: carboxymethylcellulose (CMC)
[18] = dose: 400.0 mg/kg/injection, schedule: Q01DX010 (ip), vehicle: carboxymethylcellulose (CMC)
[19] = dose: 600.0 mg/kg/injection, schedule: Q01DX010 (ip), vehicle: carboxymethylcellulose (CMC)
[20] = dose: 37.5 mg/kg/injection, schedule: Q01DX010 (ip), vehicle: carboxymethylcellulose (CMC)

COc1ccc2c(c1OC)C(=O)O[C@@H]2[C@H]1c2c(cc3c(c2OC)OCO3)CCN1C
T/C [1]: 102 % of control | T/C [2]: 88 % of control | T/C [3]: 92 % of control

Nc1nc(SCc2ccccc2Cl)c2[nH]cnc2n1
T/C [4]: 55 % of control | T/C [5]: 104 % of control | T/C [6]: 60 % of control and 84 % of control | T/C [7]: 100 % of control and 109 % of control

CC1CC(C)OS(=O)O1 (stereo unspecified)
T/C (dose: 44.0 mg/kg/injection, schedule: Q01DX010 (ip), vehicle: saline): 65 % of control | T/C (dose: 66.0 mg/kg/injection, schedule: Q01DX010 (ip), vehicle: saline): 81 % of control

CC(C)CCS(=O)(=O)OCCCCOS(=O)(=O)CCC(C)C
T/C [8]: 57 % of control | T/C [9]: 94 % of control | T/C [10]: 57 % of control | T/C [11]: 75 % of control

Cc1ccc(N=NN(C)C)cc1
T/C [5]: 96 % of control | T/C [6]: 93 % of control

CCCCCCCCCCCC[n+]1cccc2ccccc21
T/C (dose: 0.25 mg/kg/injection, schedule: Q01DX010 (ip), vehicle: carboxymethylcellulose (CMC)): 73 % of control | T/C [12]: 81 % of control | T/C [13]: 91 % of control

Nc1ccc2ccccc2c1N=Nc1ccccc1
T/C [8]: 73 % of control | T/C [9]: 79 % of control

CC(C)=CC1C(C(=O)OCc2ccc(C)cc2C)C1(C)C (stereo unspecified)
T/C (dose: 87.5 mg/kg/injection, schedule: Q01DX010 (ip), vehicle: carboxymethylcellulose (CMC)): 90 % of control | T/C (dose: 175.0 mg/kg/injection, schedule: Q01DX010 (ip), vehicle: carboxymethylcellulose (CMC)): 72 % of control | T/C (dose: 350.0 mg/kg/injection, schedule: Q01DX010 (ip), vehicle: carboxymethylcellulose (CMC)): 63 % of control

Cc1c2ccc3ccccc3c2c[n+]2ccccc12
T/C [14]: 153 % of control | T/C [4]: 89 % of control

c1ccc(CSc2ncnc3nc[nH]c23)nc1
T/C (dose: 18.0 mg/kg/injection, schedule: Q01DX010 (ip), vehicle: carboxymethylcellulose (CMC)): 85 % of control | T/C (dose: 37.0 mg/kg/injection, schedule: Q01DX010 (ip), vehicle: carboxymethylcellulose (CMC)): 89 % of control | T/C [15]: 90 % of control and 104 % of control | T/C [16]: 86 % of control

CCc1c(CC(=O)O)c2cc(C)ccc2n1Cc1ccc(Cl)cc1
T/C [6]: 70 % of control | T/C [7]: 96 % of control

CC(CCc1cccc2ccccc12)(C(=O)O)C(=O)O
T/C [7]: 96 % of control

O=P(c1ccccc1)(N1CC1)N1CC1
T/C (dose: 3.0 mg/kg/injection, schedule: Q01DX010 (ip), vehicle: saline): 108 % of control | T/C (dose: 6.0 mg/kg/injection, schedule: Q01DX010 (ip), vehicle: saline): 98 % of control | T/C (dose: 12.0 mg/kg/injection, schedule: Q01DX010 (ip), vehicle: saline): 76 % of control | T/C (dose: 24.0 mg/kg/injection, schedule: Q01DX010 (ip), vehicle: saline): 212 % of control

C=CCNc1ccc(C)cc1
T/C (dose: 85.0 mg/kg/injection, schedule: Q01DX010 (ip), vehicle: saline): 64 % of control | T/C (dose: 125.0 mg/kg/injection, schedule: Q01DX010 (ip), vehicle: saline): 91 % of control | T/C (dose: 185.0 mg/kg/injection, schedule: Q01DX010 (ip), vehicle: saline): 78 % of control

CCCCSc1nc(N)nc2c1ncn2CC(C)CC (stereo unspecified)
T/C (dose: 62.0 mg/kg/injection, schedule: Q01DX010 (ip), vehicle: carboxymethylcellulose (CMC)): 64 % of control | T/C [9]: 82 % of control | T/C [10]: 86 % of control and 94 % of control | T/C (dose: 750.0 mg/kg/injection, schedule: Q01DX010 (ip), vehicle: carboxymethylcellulose (CMC)): 54 % of control

CC(C)NCC(=O)c1ccc(O)c(O)c1
T/C [1]: 75 % of control | T/C [2]: 59 % of control | T/C [3]: 90 % of control

O=c1[nH]cnc2n[nH]nc12
T/C [8]: 112 % of control | T/C [9]: 77 % of control | T/C [10]: 60 % of control | T/C [11]: 68 % of control

O=C(O)C1(NO)CCCC1
T/C (dose: 12.5 mg/kg/injection, schedule: Q01DX010 (ip), vehicle: carboxymethylcellulose (CMC)): 76 % of control | T/C [5]: 108 % of control | T/C [6]: 104 % of control | T/C [7]: 80 % of control

CCCCCCCCCCCCCS
T/C [5]: 100 % of control | T/C [6]: 69 % of control | T/C [7]: 90 % of control

NC(N)=N/N=C/C=N/N=C(N)N
T/C (dose: 30.0 mg/kg/injection, schedule: Q01DX010 (ip), vehicle: carboxymethylcellulose (CMC)): 98 % of control

CCCCCCCCCCCC[n+]1ccc(C)cc1C
T/C (dose: 0.06 mg/kg/injection, schedule: Q01DX010 (ip), vehicle: saline): 71 % of control | T/C (dose: 0.12 mg/kg/injection, schedule: Q01DX010 (ip), vehicle: saline): 75 % of control | T/C (dose: 0.25 mg/kg/injection, schedule: Q01DX010 (ip), vehicle: saline): 85 % of control

S=c1c2[nH]cnc2ncn1CCSC1=NC=NC2=NC=NC21 (stereo unspecified)
T/C [7]: 95 % of control | T/C [17]: 100 % of control | T/C [18]: 97 % of control | T/C [19]: 93 % of control

O=C1C=CC(=O)O1 (tested in a mixture with another compound)
T/C (dose: 1.5 mg/kg/injection, schedule: Q#A X020 (ip), vehicle: carboxymethylcellulose (CMC)): 68 % of control | T/C (dose: 3.5 mg/kg/injection, schedule: Q#A X020 (ip), vehicle: carboxymethylcellulose (CMC)): 82 % of control | T/C (dose: 7.5 mg/kg/injection, schedule: Q#A X010 (ip), vehicle: carboxymethylcellulose (CMC)): 91 % of control | T/C (dose: 62.5 mg/kg/injection, schedule: Q#A X010 (ip), vehicle: carboxymethylcellulose (CMC)): 77 % of control

COc1ccc(Nc2ccnc3cc(Cl)ccc23)cc1CN(CCCl)CCCl
T/C [12]: 95 % of control | T/C [13]: 91 % of control | T/C (dose: 2.0 mg/kg/injection, schedule: Q01DX010 (ip), vehicle: carboxymethylcellulose (CMC)): 93 % of control | T/C (dose: 4.0 mg/kg/injection, schedule: Q01DX010 (ip), vehicle: carboxymethylcellulose (CMC)): 70 % of control

CS(=O)(=O)OCCCCCCCCCOS(C)(=O)=O
T/C (dose: 8.0 mg/kg/injection, schedule: Q01DX010 (ip), vehicle: carboxymethylcellulose (CMC)): 99 % of control | T/C (dose: 16.0 mg/kg/injection, schedule: Q01DX010 (ip), vehicle: carboxymethylcellulose (CMC)): 82 % of control

O=c1[nH]c2cc(Cl)c(Cl)cc2o1
T/C (dose: 9.5 mg/kg/injection, schedule: Q01DX010 (ip), vehicle: carboxymethylcellulose (CMC)): 119 % of control | T/C (dose: 19.0 mg/kg/injection, schedule: Q01DX010 (ip), vehicle: carboxymethylcellulose (CMC)): 104 % of control | T/C [20]: 95 % of control and 107 % of control | T/C [15]: 98 % of control

Cn1cnc([N+](=O)[O-])c1Sc1nc(N)nc2c1ncn2C1OC(CO)C(O)C1O (stereo unspecified)
T/C [13]: 124 % of control | T/C [14]: 69 % of control | T/C (dose: 15.0 mg/kg/injection, schedule: Q01DX010 (ip), vehicle: carboxymethylcellulose (CMC)): 88 % of control

ClCCn1cnc2c(SCc3ccccc3)ncnc21
T/C [6]: 75 % of control | T/C [7]: 84 % of control and 97 % of control | T/C [17]: 86 % of control and 89 % of control | T/C [18]: 68 % of control and 80 % of control | T/C [19]: 73 % of control

ClCCn1cnc2c(SCc3ccccc3Cl)ncnc21
T/C [6]: 96 % of control | T/C [7]: 64 % of control | T/C [18]: 49 % of control

CCCNC(=NC)c1ccc(NC(=O)c2ccc(C(=O)Nc3ccc(C(=NC)NCCC)cc3)cc2)cc1
T/C [4]: 99 % of control

Cc1nc(N)nc(N)c1-c1ccc(Cl)c(Cl)c1
T/C (dose: 0.75 mg/kg/injection, schedule: Q01DX010 (ip), vehicle: carboxymethylcellulose (CMC)): 83 % of control | T/C (dose: 1.5 mg/kg/injection, schedule: Q01DX010 (ip), vehicle: carboxymethylcellulose (CMC)): 106 % of control | T/C [14]: 100 % of control

O=C(O)Cc1ccc(C2CCCCC2)cc1
T/C [20]: 118 % of control | T/C [15]: 115 % of control | T/C [16]: 114 % of control and 121 % of control | T/C (dose: 300.0 mg/kg/injection, schedule: Q01DX010 (ip), vehicle: carboxymethylcellulose (CMC)): 94 % of control

[I][Hg][CH2]C1COCC([CH2][Hg][I])O1.[I][Hg][CH2]C1COCC([CH2][Hg][I])O1 (stereo unspecified)
T/C (dose: 10.0 mg/kg/injection, schedule: Q01DX010 (ip), vehicle: carboxymethylcellulose (CMC)): 83 % of control | T/C (dose: 20.0 mg/kg/injection, schedule: Q01DX010 (ip), vehicle: carboxymethylcellulose (CMC)): 109 % of control | T/C (dose: 40.0 mg/kg/injection, schedule: Q01DX010 (ip), vehicle: carboxymethylcellulose (CMC)): 91 % of control

Source: PubChem BioAssay AID234 (DTP/NCI, 2004)
